This note sets out measurements from patent publication US20080300288A1, “Alkenyldiarylmethanes, Fused Analogs And Syntheses Thereof” (PURDUE RESEARCH FOUNDATION, priority 2005, published 2008).

Structures are written as SMILES. Where two headings read alike, the source gives them in different places. Where only a bound is given, the exact number is not on record here.

Series [1] in a line: In vitro hydrolytic stability study in rat plasma. The series is classed as in vitro ADME. As to conditions: rat plasma in vitro, half-life. The procedure: NMR spectra were obtained at 300 MHz (^1H) and 75 MHz (^13C) in CDCl3 using CHCl3 as internal standard. Flash chromatography was performed with 230-400 mesh silica gel. […] Melting points are uncorrected. Unless otherwise stated, chemicals and solvents were of reagent grade and used as obtained from commercial sources without further purification. Tetrahydrofuran (THF) was freshly distilled from sodium/benzophenone ketyl radical prior to use. Dichloromethane was freshly distilled from calcium hydride prior to use. Lyophilized rat plasma (lot 052K7609) was obtained from Sigma Chemical Co., St. Louis, Mo. All yields given refer to isolated yields.
In vitro Hydrolytic Stability Study in Rat Plasma. […] See, Silvestri, M. A.; Nagarajan, M.; De Clercq, E.; Pannecouque, C.; Cushman, M. Design, Synthesis, Anti-HIV Activities, and Metabolic Stabilities of Alkenyldiarylmethane (ADAM) Non-nucleoside Reverse Transcriptase Inhibitors. J. Med. Chem. 2004, 47, 3149-3162, the disclosure of which is incorporated herein by reference.

Series [2] has as its system HIV-1RF. The series can be described thus: MTS cytoprotection assay, HIV-1RF infection in CEM-SS cells. The series is classed as cell-based. The following applies: Human immunodeficiency virus 1; HIV-1RF in CEM-SS cells; read-out: EC50 HIV-1RF (inhibition of cytopathicity). The procedure: (§1) In Vitro Antiviral Assays. Evaluation of the antiviral activity of compounds against HIV-1RF infection in CEM-SS cells was performed using the MTS cytoprotection assay as previously described. See, Rice, W. G.; Bader, J. P. Discovery and in Vitro Development of AIDS Antiviral Drugs as Biopharmaceuticals. Adv. Pharmacol. (San Diego) 1995, 6, 389-438, the disclosure of which is incorporated herein by reference. […] See, Pauwels, R.; Balzarini, J.; Baba, M.; Snoeck, R.; Schols, D.; Herdewijn, P.; Desmyter, J.; De Clercq, E. Rapid and Automated Tetrazolium-based Colorimetric Assay for Detection of Anti-HIV Compounds. J. Virol. Methods 1988, 20, 309-321, the disclosure of which is incorporated herein by reference.
For orientation: Formazan colour is commonly taken as a measure of viable cells.

Series [3] has as its system HIV-1 strain IIIB. The series can be described thus: MTT assay, HIV-1 strain IIIB in MT-4 cells. The following applies: Human immunodeficiency virus 1, MT4; HIV-1IIIB in MT-4 cells; read-out: EC50 HIV-1IIIB (inhibition of cytopathicity). The class given is cell-based.
The target of series [4] is T1, recombinant HIV-1 RT enzyme (p66/51 dimer) (Human immunodeficiency virus type 1 group M subtype B, UniProt P04585).
T1 construct: recombinant HIV-1 RT enzyme (p66/51 dimer)
The series can be described thus: RT inhibition assay, incorporation of [32P]GTP into poly(rC)/oligo(dG). The series is classed as biochemical. The procedure: RT Inhibition Assay. Analysis of the effects of the compounds on recombinant HIV-1 RT enzyme (p66/51 dimer) was performed as previously described. See, Buckheit, R. W. J.; Fliakas-Boltz, V.; Decker, W. D.; Robertson, J. L.; Stup, T. L.; Pyle, C. […] Antiviral Res. 1995, 26, 117-132, the disclosure of which is incorporated herein by reference. Briefly, inhibition of purified recombinant reverse transcriptase enzyme was measured by the incorporation of [^32P]GTP into poly(rC)/oligo(dG) (rCdG) homopolymer template primers.

Series [5] concerns HIV-2 strain (ROD). Put plainly: MTT assay, HIV-2 strain (ROD) in MT-4 cells. The series is classed as cell-based. As to conditions: Human immunodeficiency virus 2, MT4; HIV-2ROD in MT-4 cells; read-out: EC50 HIV-2-ROD (inhibition of cytopathicity).
The subject of series [6] is CEM-SS cells. The series can be described thus: Cytotoxicity in mock-infected CEM-SS cells. The class given is cell-based. The following applies: read-out: CC50 CEM-SS Cells (50% cytotoxic concentration). The method, then: as §1, with “[…].;” for “D.; Herdewijn, P.; Desmyter, J.;”, “[…].” for “Clercq, E.”
Series [7] concerns MT-4 cells. The series can be described thus: Cytotoxicity in mock-infected MT-4 cells. The series is classed as cell-based. As to conditions: read-out: CC50 MT-4 Cells (50% cytotoxic concentration).
Series [8] is described as follows: Cytotoxicity in mock-infected CEM-SS cells. The series is classed as cell-based. As to conditions: human, uninfected (mock-infected) CEM-SS cells. The procedure:
as §1, with “[…].;” for “D.; Herdewijn, P.; Desmyter, J.;”, “[…].” for “Clercq, E.”

A short description of series [9]: Cytotoxicity in mock-infected MT-4 cells. The class given is cell-based. As to conditions: human, uninfected (mock-infected) MT-4 cells.

`COC(=O)CCC/C=C(\c1cc(C)c(OC)c(C(=O)OC)c1)c1cc(C)c2oc(=O)n(C)c2c1` [Compound 64, (E)-5-[1-(3,7-Dimethyl-2-oxo-2,3-dihydro-benzoxazol-5-yl)-5-methoxycarbonyl-pent-1-enyl]-2-methoxy-3-methylbenzoic Acid Methyl Ester]: the “Rat Plasma tp1/2 (min ± SD)” value in series [1] worked out at 1.30 ± 0.09 min. The EC50 (commonly the midpoint of the concentration-response curve) in series [2] was 30 nM; in series [3] it was 90 nM; in [5], over 16.9 µM. The IC50 (commonly the concentration that gives 50% inhibition) in series [4] stood at 20 nM. For the same compound, the CC50 in series [6] came to 5.1 µM; in series [7], 16.9 µM.

Take `COC(=O)CCCC=C(c1cc(C)c(OC)c(C(=O)OC)c1)c1cc(C)c(OC)c(C(=O)OC)c1` [Compound 1, Methyl 4′,4″-Dimethoxy-3′,3″-di(methoxycarbonyl)-5′,5″-dimethyl-6,6-diphenyl-5-hexenoate]: in series [1], the “Rat Plasma tp1/2 (min ± SD)” value was 0.76 ± 0.04 min. For the same compound, the values for the EC50 in [2] and in series [3] were 250 nM and 1000 nM, respectively. For the same compound, the IC50 in series [4] (poly(rC)•oligo(dG) as the template primer, read-out: IC50 (inhibitory activity vs HIV-1 reverse transcriptase)) came to 1000 nM. The CC50 is 6 µM in series [6] and 6.1 µM in series [7].

Turning to `COC(=O)CCC/C=C(/c1ccc(OC)c(C(=O)OC)c1)c1cc(C)c2oc(=O)n(C)c2c1` [Compound 62, (Z)-5-[1-(3,7-Dimethyl-2-oxo-2,3-dihydrobenzoxazol-5-yl)-5-methoxycarbonyl-pent-1-enyl]-2-methoxy-benzoic Acid Methyl Ester], the melting point (as a rule, the temperature, or range, at which the solid turns liquid) is 134 to 135 °C. The “Rat Plasma tp1/2 (min ± SD)” value in series [1] was 0.34 ± 0.15 min. For the same compound, in series [2], the concentration for a half-maximal effect (EC50) was determined as 3080 nM. In addition, the EC50 in series [3] worked out at 4150 nM. Moreover, the concentration for half-maximal inhibition (IC50) in [4] came to 990 nM. In addition, in series [5], the EC50 is over 115 µM. In series [8], this compound yielded a CC50 of over 13.5 µM. Moreover, the CC50 in series [9] is 115 µM.

On to `COC(=O)CCC/C=C(/c1cc(C)c(OC)c(C(=O)OC)c1)c1cc(C)c2oc(=O)n(C)c2c1` [Compound 60, (Z)-5-[1-(3,7-Dimethyl-2-oxo-2,3-dihydro-benzoxazol-5-yl)-5-methoxycarbonyl-pent-1-enyl]-2-methoxy-3-methylbenzoic Acid Methyl Ester], for which the “Rat Plasma tp1/2 (min ± SD)” value in series [1] is 1.74 ± 0.00 min. Besides, the EC50 in series [2] is 870 nM; in series [3], 1010 nM; in [5], over 28.2 µM. Moreover, the IC50 in series [4] was 160 nM. In addition, the CC50 turned out to be 9.39 µM in series [8] and 28.2 µM in series [9].
